{"source": "ChEMBL document CHEMBL1212885", "about": "“Identification and characterization of acidic mammalian chitinase inhibitors” (J Med Chem, 2010)", "key": {"[1]": {"biological_target": "T1, Acidic mammalian chitinase (Homo sapiens, UniProt Q9BZP6)", "T1 sequence (Q9BZP6 whole entry)": "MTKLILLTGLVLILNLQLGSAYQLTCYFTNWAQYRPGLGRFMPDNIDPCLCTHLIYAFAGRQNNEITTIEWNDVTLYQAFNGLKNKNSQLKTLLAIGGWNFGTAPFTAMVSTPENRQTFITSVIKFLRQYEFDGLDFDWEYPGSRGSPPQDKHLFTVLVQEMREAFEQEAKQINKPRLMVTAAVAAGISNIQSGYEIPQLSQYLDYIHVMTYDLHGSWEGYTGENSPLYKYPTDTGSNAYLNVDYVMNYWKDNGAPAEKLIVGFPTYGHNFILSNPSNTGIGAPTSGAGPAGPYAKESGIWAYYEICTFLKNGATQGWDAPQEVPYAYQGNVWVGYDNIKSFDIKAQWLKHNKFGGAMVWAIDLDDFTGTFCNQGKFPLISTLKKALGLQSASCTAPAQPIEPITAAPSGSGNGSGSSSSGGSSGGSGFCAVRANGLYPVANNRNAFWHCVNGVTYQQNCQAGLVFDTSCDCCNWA", "assay": "Binding affinity to biotinylated-acidic mammalian chitinase"}, "[2]": {"assay": "Inhibition of chitotriosidase after 60 mins"}, "[3]": {"biological_target": "T1, Acidic mammalian chitinase", "assay": "Inhibition of acidic mammalian chitinase after 60 mins"}, "Mus musculus [4]": {"tested_on": "Mus musculus", "assay": "Antiallergic activity in C57BL/6 mouse assessed as reduction of HDM/CRA-induced chitinase activity in bronchoalveolar lavage fluid at 50 mg/kg, po administered twice daily", "type": "functional, C57BL6, Lung", "parameters": "scale not given: the % may be the effect or the level left"}, "Mus musculus [5]": {"tested_on": "Mus musculus", "assay": "Antiallergic activity in C57BL/6 mouse assessed as reduction of HDM/CRA-induced chitinase activity in bronchoalveolar lavage fluid at 10 mg/kg, ip administered once daily", "type": "functional, C57BL6, Lung", "parameters": "scale not given: the % may be the effect or the level left", "conditions": "route intraperitoneal"}}}
{"smiles": "NC(=O)c1cccnc1N1CCNCC1", "values": [{"measurement": "Kd", "setting": "[1]", "value": 141, "unit": "µM"}, {"measurement": "IC50", "setting": "[2]", "value": 90.1, "unit": "µM"}, {"measurement": "IC50", "setting": "[3]", "value": 102, "unit": "µM"}]}
{"smiles": "N=C(N)N1CCN(c2ccc(Cl)cc2)CC1", "values": [{"measurement": "IC50", "setting": "[2]", "value": "> 100", "unit": "µM"}]}
{"smiles": "Nc1n[nH]c(N2CCN(CCOc3ccc(Br)cc3)CC2)n1", "values": [{"measurement": "IC50", "setting": "[2]", "value": 4.23, "unit": "µM"}, {"measurement": "Activity", "setting": "Mus musculus [4]", "value": 43, "unit": "%"}]}
{"smiles": "Cc1[nH]c2ccccc2c1CN1CCN(c2ccccn2)CC1", "values": [{"measurement": "IC50", "setting": "[2]", "value": 1.34, "unit": "µM"}]}
{"smiles": "C[C@@H]1C[C@H]2[C@@H]3CCC4=CC(=O)C=C[C@]4(C)[C@@]3(F)[C@@H](O)C[C@]2(C)[C@@]1(O)C(=O)CO", "note": "[DEXAMETHASONE]", "values": [{"measurement": "Activity", "setting": "Mus musculus [5]", "value": 60, "unit": "%"}]}
